According to article PMC9743128, “Phenotype-based screening rediscovered benzopyran-embedded microtubule inhibitors as anti-neuroinflammatory agents by modulating the tubulin–p65 interaction” (Experimental & Molecular Medicine, 2022):

Legend:
J774A.1 cells = test: Flow cytometry cell cycle analysis (PI staining); type: cell-based, murine
Protocol: NF-κB SEAP reporter HEK293T cell (Invivogen; hkb-mmcl) were seeded 10,000 cells/well at white 96-well plate (Falcon; 353296). HEK293 cells were transfected with a 1 to 1 ratio of 3xAP1pGL3 (Addgene; #40342) and pRL-TK (Promega; E2241) mixture using LTX plus (Invitrogen; 15338100) and opti-MEM (Gibco; 31985070) according to the manufacturer's protocol. After 24-h compound treatment or the overexpression of α-tubulin or GFP, 40 μl of the medium was transferred to a 96-well plate and mixed with 180 μl of quanti-blue solution (Invitrogen; rep-qbs) for the measurement of NF-κB activation. We measured the absorbance at 655 nm after 2-h incubation at 37 °C. To measure the AP-1 activation, cells were washed with PBS and lysed with 20 μl of 1× passive lysis buffer for 15 min. Luciferase signals were measured by dual-luciferase reporter assay system (Progema; E1980) using a microplate reader (BioTek; Synergy HTX). Expression levels of SEAP and AP-1 were normalized by renilla luciferase signal.
J774A.1 cells were treated with each compound for the designated time and dose. The cells were trypsinized and re-suspended in PBS containing 2% FBS (Gibco; #16000-044). To measure cell cycle arrest, the same number of the re-suspended cells was stained with propidium iodide (PI) (Abcam; ab14085) according to the manufacturer’s protocol. […]

tubulin = molecular target: T1, tubulin (Sus scrofa, UniProt P02550+P02554); test: Tubulin polymerization assay; type: biochemical; details: 1 μM compound
T1 construct: purchased Cytoskeleton BK006P
T1 sequence (P02554 whole entry): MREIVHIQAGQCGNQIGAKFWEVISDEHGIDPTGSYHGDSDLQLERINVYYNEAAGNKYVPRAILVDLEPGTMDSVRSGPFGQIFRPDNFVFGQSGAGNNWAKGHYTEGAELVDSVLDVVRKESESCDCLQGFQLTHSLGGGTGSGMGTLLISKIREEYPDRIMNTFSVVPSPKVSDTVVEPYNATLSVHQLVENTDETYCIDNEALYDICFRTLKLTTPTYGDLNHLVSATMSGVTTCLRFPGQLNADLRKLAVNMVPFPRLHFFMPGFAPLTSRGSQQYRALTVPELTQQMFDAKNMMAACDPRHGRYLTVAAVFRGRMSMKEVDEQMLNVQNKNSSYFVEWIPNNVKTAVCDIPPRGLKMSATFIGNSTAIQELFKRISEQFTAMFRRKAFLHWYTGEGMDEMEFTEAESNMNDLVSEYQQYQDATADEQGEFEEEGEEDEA
T1 sequence (P02550 whole entry): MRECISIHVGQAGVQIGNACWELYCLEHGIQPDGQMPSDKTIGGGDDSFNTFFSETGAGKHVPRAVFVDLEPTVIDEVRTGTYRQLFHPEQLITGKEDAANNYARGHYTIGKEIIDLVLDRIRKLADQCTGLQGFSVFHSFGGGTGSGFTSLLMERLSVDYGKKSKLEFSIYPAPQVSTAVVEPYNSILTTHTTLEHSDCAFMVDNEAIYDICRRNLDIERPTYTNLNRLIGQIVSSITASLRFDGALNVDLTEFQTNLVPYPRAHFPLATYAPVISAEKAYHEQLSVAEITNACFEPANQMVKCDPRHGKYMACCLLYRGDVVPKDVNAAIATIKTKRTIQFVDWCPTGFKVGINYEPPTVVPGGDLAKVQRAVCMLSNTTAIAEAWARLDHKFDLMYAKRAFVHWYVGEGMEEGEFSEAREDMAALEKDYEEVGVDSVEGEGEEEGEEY
Protocol: The tubulin polymerization inhibition efficacy of the compounds was measured by a tubulin polymerization assay kit (Cytoskeleton; BK006P) according to the manufacturer’s manual. Absorbance at 340 nm was measured to observe the formation of tubulin polymers using a microplate reader (Biotek; Synergy).
Supplementary Fig. 4. Tubulin polymerization inhibition by compounds 1–13 (1 μM). In the presence or absence of compounds, tubulin was incubated to polymerize at room temperature. Absorbance at 340 nm was measured in a time-dependent manner for monitoring the rate of tubulin polymerization.
Supplementary Table 2. Tubulin polymerization inhibition of the focused library. Tubulin was incubated with each compound (1 μM) and the tubulin polymerization inhibition was monitored. Vmax was calculated from tubulin polymer generation curve data of Supplementary Fig. 3.

[1] = molecular target: T2, p65–α-tubulin interaction (Mus musculus, UniProt P05213+P99024); test: Immunoprecipitation of p65, IκB and α-tubulin; type: cell-based, murine; details: 1 h treatment, 10 μM
T2 construct: endogenous in cells
T2 sequence (P05213 whole entry): as the sequence (P02550 whole entry) above, with S136L, G232S, A265I, T340S, E358Q counted along it
T2 sequence (P99024 whole entry): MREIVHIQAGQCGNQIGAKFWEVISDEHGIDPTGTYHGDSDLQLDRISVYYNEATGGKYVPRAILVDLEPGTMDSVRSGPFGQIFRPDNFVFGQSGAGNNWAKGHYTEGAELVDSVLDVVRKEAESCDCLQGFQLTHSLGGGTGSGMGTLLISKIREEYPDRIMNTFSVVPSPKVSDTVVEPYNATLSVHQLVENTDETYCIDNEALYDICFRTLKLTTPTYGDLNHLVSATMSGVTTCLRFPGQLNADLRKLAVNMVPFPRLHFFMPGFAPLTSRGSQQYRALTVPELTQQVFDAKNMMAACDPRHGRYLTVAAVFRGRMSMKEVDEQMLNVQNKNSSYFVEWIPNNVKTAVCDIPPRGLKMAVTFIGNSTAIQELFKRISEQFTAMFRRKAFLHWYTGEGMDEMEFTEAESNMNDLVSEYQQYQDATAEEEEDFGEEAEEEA
Protocol: After a 1-h incubation in the absence or presence of SB26019, cells were harvested and lysed for 1 h on ice with IP lysis buffer {50 mM Tris–HCl pH 8.0 (Acros; #77-86-1), 200 mM NaCl, 0.5% NP40 (Sigma; #I8896), and 1× protease inhibitor cocktail (Roche; #11873580001)}. The protein concentration was measured using a bicinchoninic acid (BCA) protein assay kit (Thermo; #23225). Then, 150 μg of the lysates were incubated with 1.5 μg of anti-p65 antibody (Abcam; ab16502), anti-IκB antibody (CST; #4814), or α-tubulin antibody (CST; #3873) at 4 °C overnight. Subsequently, the proteins of interest were precipitated using protein A and G beads (Santa Cruz; sc-2001, sc-2002). Samples were analyzed with western blotting using anti-p65, IκB, and α-tubulin primary antibodies.
To understand the inhibitory mechanism of p65 nuclear translocation by SB26019, the expression levels of p65, IκB, and tubulin monomers were monitored upon SB26019 treatment in murine macrophage cells. […] Additionally, nuclear translocation of p65 was inhibited by SB26019 treatment despite an increase in phospho-IκB and a decrease in total IκB (Fig. 3e). […] Consequently, IκB is released from p65 and degraded by the proteasome. […] To test this hypothesis, we monitored protein‒protein interactions among p65, IκB, and tubulin with immunoprecipitation. […]

[2] = system: LPS-mediated NO release in BV-2 microglial cells; test: Griess assay: cellular NO release after LPS treatment; type: cell-based, murine
Protocol: Cellular secretion of nitric oxide (NO) was quantified with the Griess assay. BV-2 cells were seeded on a clear flat bottom TC-treated 96-well plate (Corning; #3598) and sealed with breathable sealing tape (Axygen; BF-400-S). After 18 h, BV-2 cells were treated with compounds in the absence or presence of 100 ng/mL LPS (Sigma; L4391). After 24 h, 50 μL of the cell culture media was mixed with the same volume of Griess reagent {0.1% naphthylethylenediamine dihydrochloride (Sigma; #222488) and 1% sulfanilamide (Sigma; S9251) in 4% phosphoric acid (Daejung; #6532-4405)}. Absorbance at 550 nm was measured using a microplate reader (BioTek; Synergy). Sodium nitrite (Alfa Aesar; A18668) was used for standard curve generation.
Microglia are tissue-resident macrophages involved in CNS immunosurveillance[3],[39]. Microglial activation induces proinflammatory cytokine tumor necrosis factor α (TNF-α) expression, resulting in neural toxicity[5],[6]. Therefore, the inhibition of microglial activation is critical for regulating neuroinflammation. To discover anti-neuroinflammatory NCEs, we monitored the cellular release of nitric oxide (NO) in response to lipopolysaccharide (LPS) treatment as a mimic of pathogenic activation of innate immune systems upon compound treatment in BV-2 cells using the Griess assay.

- Cell cycle arrest (J774A.1 cells): no cell cycle arrest
- Interaction between p65 and α-tubulin [1]: increased
- IC50 ([2]; Mus musculus, BV-2 cells, 100 ng/mL LPS, 24 h): 1.13 µM
SMILES: COc1ccc2c(c1O)OC(C)(C)C=C2c1cccc2c1oc1ccccc12 [Compound 8]
- Vmax of microtubule polymerization compared to DMSO control (tubulin): significantly inhibited tubulin polymerization
- inhibition at 10 µM ([2]; Mus musculus, 10 μM, BV-2 cells, LPS, read-out: % NO inh. at 10 μM): 102%
- Anti-neuroinflammatory activity in compensated Griess assay with Taxol ([2]; SB26019 5 μM, with or without tubulin stabilizer Taxol): attenuated in the presence of Taxol in a dose-dependent manner
